According to PubChem BioAssay (NCI):
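Briefly, cells in 96-well plates were exposed to five compound concentrations for 48 h, and endpoints were estimated by linear interpolation. At the TGI there is no net growth.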

Experiments:
Test in all cases: inhibition of tumour cell growth, NCI panel, 48 h
[1] = tested on: M14 melanoma
[2] = tested on: U251 CNS
[3] = tested on: SK-MEL-2 melanoma
[4] = tested on: RPMI-8226 leukemia
[5] = tested on: HCT-15 colon
[6] = tested on: NCI-H522 lung
[7] = tested on: CAKI-1 renal
[8] = tested on: EKVX NSCLC
[9] = tested on: UO-31 renal
[10] = tested on: HS 578T breast
[11] = tested on: IGROV1 ovarian
[12] = tested on: T-47D breast
[13] = tested on: OVCAR-5 ovarian
[14] = tested on: OVCAR-8 ovarian
[15] = tested on: PC-3 prostate
[16] = tested on: A498 renal
[17] = tested on: HOP-62 NSCLC
[18] = tested on: SF-539 CNS
[19] = tested on: HCC-2998 colon
[20] = tested on: DU-145 prostate
[21] = tested on: NCI-H460 lung
[22] = tested on: NCI-H23 lung
[23] = tested on: MDA-N
[24] = tested on: NCI-H226 lung
[25] = tested on: SNB-19 CNS
[26] = tested on: MOLT-4 leukemia
[27] = tested on: A549 NSCLC
[28] = tested on: MDA-MB-435
[29] = tested on: ACHN renal
[30] = tested on: SF-295 CNS
[31] = tested on: SW-620 colon
[32] = tested on: COLO 205 colon
[33] = tested on: MALME-3M melanoma
[34] = tested on: HCT-116 colon
[35] = tested on: MDA-MB-231 breast
[36] = tested on: KM12 colon
[37] = tested on: SK-MEL-5 melanoma
[38] = tested on: UACC-62 melanoma
[39] = tested on: SK-MEL-28 melanoma
[40] = tested on: RXF 393 renal
[41] = tested on: OVCAR-3 ovarian
[42] = tested on: HT29 colon
[43] = tested on: SF-268 CNS
[44] = tested on: TK-10 renal
[45] = tested on: SN12C renal
[46] = tested on: SK-OV-3 ovarian
[47] = tested on: NCI/ADR-RES ovarian
[48] = tested on: OVCAR-4 ovarian
[49] = tested on: 786-0 renal
[50] = tested on: MCF7 breast
[51] = tested on: SR leukemia
[52] = tested on: K-562 leukemia
[53] = tested on: UACC-257 melanoma
[54] = tested on: LOX IMVI melanoma
[55] = tested on: SNB-75 CNS
[56] = tested on: HL-60(TB) leukemia
[57] = tested on: HOP-92 NSCLC
[58] = tested on: CCRF-CEM leukemia

COc1ccc(NC(=O)Oc2ccc3c(C)cc(=O)oc3c2)c(OC)c1 (tested in a mixture with another compound)
TGI [1]: > 100 µM | TGI [2]: > 100 µM | TGI [3]: > 100 µM | TGI [4]: > 100 µM | TGI [5]: > 100 µM | TGI [6]: > 100 µM | TGI [7]: > 100 µM | TGI [8]: > 100 µM | TGI [9]: > 100 µM | TGI [10]: > 100 µM | TGI [11]: > 100 µM | TGI [12]: > 100 µM | TGI [13]: > 100 µM | TGI [14]: > 100 µM | TGI [15]: > 100 µM | TGI [16]: 86.1 µM | TGI [17]: > 100 µM | TGI [18]: > 100 µM | TGI [19]: > 100 µM | TGI [20]: > 100 µM | TGI [21]: > 100 µM | TGI [22]: > 100 µM | TGI [23]: > 100 µM | TGI [24]: > 100 µM | TGI [25]: > 100 µM | TGI [26]: > 100 µM | TGI [27]: > 100 µM | TGI [28]: > 100 µM | TGI [29]: > 100 µM | TGI [30]: > 100 µM | TGI [31]: > 100 µM | TGI [32]: > 100 µM | TGI [33]: > 100 µM | TGI [34]: > 100 µM | TGI [35]: > 100 µM | TGI [36]: > 100 µM | TGI [37]: > 100 µM | TGI [38]: > 100 µM | TGI [39]: > 100 µM | TGI [40]: > 100 µM | TGI [41]: > 100 µM | TGI [42]: > 100 µM | TGI [43]: > 100 µM | TGI [44]: > 100 µM | TGI [45]: > 100 µM | TGI [46]: > 100 µM | TGI [47]: > 100 µM | TGI [48]: > 100 µM | TGI [49]: > 100 µM

COC(=O)CCc1ccc(CCC(=O)OC)cc1
TGI [1]: > 100 µM | TGI [50]: > 100 µM | TGI [2]: > 100 µM | TGI [51]: > 100 µM | TGI [3]: > 100 µM | TGI [4]: > 100 µM | TGI [5]: > 100 µM | TGI [6]: > 100 µM | TGI [7]: > 100 µM | TGI [8]: > 100 µM | TGI [9]: > 100 µM | TGI [10]: > 100 µM | TGI [11]: > 100 µM | TGI [12]: > 100 µM | TGI [13]: > 100 µM | TGI [14]: > 100 µM | TGI [15]: > 100 µM | TGI [16]: > 100 µM | TGI [17]: > 100 µM | TGI [18]: > 100 µM | TGI [19]: > 100 µM | TGI [20]: > 100 µM | TGI [21]: > 100 µM | TGI [52]: > 100 µM | TGI [22]: > 100 µM | TGI [23]: > 100 µM | TGI [25]: > 100 µM | TGI [53]: > 100 µM | TGI [26]: > 100 µM | TGI [27]: > 100 µM | TGI [28]: > 100 µM | TGI [29]: > 100 µM | TGI [54]: > 100 µM | TGI [30]: > 100 µM | TGI [31]: > 100 µM | TGI [55]: > 100 µM | TGI [33]: > 100 µM | TGI [34]: > 100 µM | TGI [56]: > 100 µM | TGI [35]: > 100 µM | TGI [37]: > 100 µM | TGI [57]: > 100 µM | TGI [58]: > 100 µM | TGI [39]: > 100 µM | TGI [40]: > 100 µM | TGI [41]: > 100 µM | TGI [42]: > 100 µM | TGI [43]: > 100 µM | TGI [44]: > 100 µM | TGI [46]: > 100 µM | TGI [47]: > 100 µM | TGI [48]: > 100 µM | TGI [49]: > 100 µM
